IC50, inhibition and Activity data for 4 compounds are collected here from ChEMBL document CHEMBL5528088, “Design and Synthesis of Cyclolipopeptide Mimics of Dysoxylactam A and Evaluation of the Reversing Potencies against P-Glycoprotein-Mediated Multidrug Resistance” (J Med Chem, 2024).

Structures can show the parent of a compound that is named as a salt. The source made the active and inactive calls. The calls are words filed in the database; no cut-off is given here.

A word on the IC50: it is the concentration at which inhibition is half-maximal. One may read the inhibition as the percentage by which the read-out fell short of the control.

Experiment [1] has as its system KBv200. As to the kind of experiment: Reversal effect on P-gp-mediated multidrug resistance in human KBv200 cells assessed as inhibition of cell proliferation incubated for 72 hrs by SRB assay. The class given is functional, cell-based. The settings on record: KBv200, 72 h. (In general: Sulforhodamine B stains cellular protein and so reports cell mass.)
For a further experiment, the system named is NCI/ADR-RES. Put plainly: Reversal effect on P-gp-mediated multidrug resistance in human NCI/ADR-RES cells assessed as inhibition of cell proliferation incubated for 72 hrs by SRB assay. The class given is functional, cell-based.
Experiment [2] deals with KBv200. As to the kind of experiment: Inhibition of ADR uptake in human KBv200 cells at 10 uM incubated for 10 mins by flow cytometry. In kind it is functional, cell-based. (In general: In flow cytometry, cells or beads pass a laser one at a time.)
Experiment [3] has as its system KBv200. Put plainly: Inhibition of calcein AM uptake in human KBv200 cells at 10 uM incubated for 10 mins by flow cytometry. In kind it is functional, cell-based.
Experiment [4] relates to KBv200. Put plainly: Inhibition of Rho-123 uptake in human KBv200 cells at 10 uM incubated for 10 mins by flow cytometry. The class given is functional, cell-based.
For experiment [5], the system named is KBv200. As to the kind of experiment: Inhibition of cell proliferation in human KBv200 cells at 10 uM incubated for 72 hrs by SRB assay relative to control. In kind it is functional.
The subject of experiment [6] is KBv200. As to the kind of experiment: Inhibition of cell proliferation in human KBv200 cells incubated for 72 hrs by SRB assay. In kind it is functional, cell-based. The settings on record: KBv200, 72 h.
For experiment [7], the system named is KBv200. As to the kind of experiment: Antitumor activity against human KBv200 cells xenografted in Balb/cA nude mouse assessed as decrease in tumor size at 8 mg/kg, iv administered on day 0,4,8 and measured for 14 days. The class given is functional, organism-based. The following applies: time 14.0 day. In general terms: A xenograft is tissue or cells of one species grown in another, often human tumour cells in immunodeficient mice.

With `CC(=O)O[C@H]1C(=O)[C@@]2(C)[C@H]([C@H](OC(=O)c3ccccc3)[C@]3(O)C[C@H](OC(=O)[C@H](O)[C@@H](NC(=O)c4ccccc4)c4ccccc4)C(C)=C1C3(C)C)[C@]1(OC(C)=O)CO[C@@H]1C[C@@H]2O` [PACLITAXEL], the half-inhibitory concentration (IC50) in the experiment with KBv200 [1] turned out to be 238 nM.
`COc1cccc2c1C(=O)c1c(O)c3c(c(O)c1C2=O)C[C@@](O)(C(=O)CO)C[C@@H]3O[C@H]1C[C@H](N)[C@H](O)[C@H](C)O1` [DOXORUBICIN HYDROCHLORIDE]: the results for the concentration for half-maximal inhibition (IC50) in the experiment with KBv200 [1] and in the experiment on NCI/ADR-RES were 373 nM and 26 µM, respectively.
With `COc1cc2c(cc1OC)CN(CCc1ccc(NC(=O)c3cc(OC)c(OC)cc3NC(=O)c3cnc4ccccc4c3)cc1)CC2`, the inhibition result in the experiment with KBv200 [2], in the experiment on KBv200 [3] and in the experiment with KBv200 [4] was “Active” in each case.
In the experiment with KBv200 [5], `CCC1=C[C@@H]2CN(C1)Cc1c([nH]c3ccccc13)[C@@](C(=O)OC)(c1cc3c(cc1OC)N(C)[C@H]1[C@@](O)(C(=O)OC)[C@H](OC(C)=O)[C@]4(CC)C=CCN5CC[C@]31[C@@H]54)C2` [VINORELBINE] showed an inhibition at 10 µM of 4.9%. Further, the figures for the half-inhibitory concentration (IC50) in the experiment with KBv200 [6], with KBv200 [1] and with NCI/ADR-RES were 298 nM, 205 nM and 3.72 µM, respectively. For the same compound, the outcome in the experiment with KBv200 [7] was Active.
